This passage reports Ki and IC50 results from the Kinase Knowledgebase extract (Sharma et al. 2016).

In general, Ki refers to a dissociation constant, usually derived from enzyme kinetics or from competition with a known ligand. Higher therefore signals lower affinity. The IC50 is the concentration that inhibits the measured activity by half. A higher IC50 goes with a need for much substance.

In the assay the target is MAPK14 (human) (UniProt Q16539). Put plainly: Assessment of MAPK14 Kinase Activity by Fluorescence Anisotropy Kinase Binding Assay. On the technique in general: In fluorescence polarisation assays a small probe gives low polarisation when free and higher when bound to something large.
Chain of MAPK14 (human) (Q16539 whole entry, looked up): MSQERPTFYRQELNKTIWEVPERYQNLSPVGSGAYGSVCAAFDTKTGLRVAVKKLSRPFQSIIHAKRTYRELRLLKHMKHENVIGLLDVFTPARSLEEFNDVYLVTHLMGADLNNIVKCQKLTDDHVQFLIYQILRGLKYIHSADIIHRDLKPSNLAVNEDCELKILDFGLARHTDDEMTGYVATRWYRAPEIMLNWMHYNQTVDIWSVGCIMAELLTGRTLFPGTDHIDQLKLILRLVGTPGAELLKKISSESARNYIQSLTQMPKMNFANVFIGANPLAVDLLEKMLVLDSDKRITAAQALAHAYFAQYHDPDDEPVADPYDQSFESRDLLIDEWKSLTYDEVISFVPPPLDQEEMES
`O=c1ccc2c(-c3ccccc3)nccc2n1Cc1ccccc1` displayed a Ki of 20 nM.
`O=c1ccc2c(-c3ccccc3F)cccc2n1-c1ccc(F)cc1` gave an IC50 below 1000 nM.
Same read-out and setting: as for `O=c1ccc2c(-c3ccc(F)cc3F)cccc2n1-c1ccc(F)cc1`, the figure is below 1000 nM.
In turn, `O=c1ccc2c(-c3ccccc3Cl)nc(Cl)cc2n1-c1ccccc1Cl` yielded a Ki of 20 nM.
Take `O=c1ccc2c(-c3ccc(F)cc3)ccnc2n1-c1ccc(F)cc1`: the IC50 is below 1000 nM.
Molecule `COc1cc2c(ccc(=O)n2-c2ccccc2Cl)c(-c2ccccc2Cl)c1Br` yielded a Ki of 12.6 nM.
Consider `O=c1ccc2c(-c3ccccc3Cl)cc(NC(CO)CO)cc2n1-c1ccccc1Cl`, for which the Ki was 20 nM.
The same measure, in the same setting: next, `O=c1ccc2c(-c3ccccc3Cl)nc(Br)cc2n1-c1ccccc1Cl`: 20 nM.
On to `O=c1ccc2c(-c3ccccc3)nccc2[nH]1`, for which the IC50 was below 1000 nM.
On the same count and under the same terms, next, `O=c1ccc2c(-c3ccc(F)cc3F)ccnc2n1-c1ccc(F)cc1`: below 1000 nM; `O=c1ccc2c(-c3ccc(F)cc3)cccc2n1-c1ccc(F)cc1`: below 1000 nM.
